Earlier results, collected in patent publication US8092783B2, “Gadolinium containing prussian blue nanoparticles as nontoxic MRI contrast agents having high relaxivity” (Kent State University, priority 2009, dated 2012).

Settings: magnetic field strength 1.5 Tesla; commercial or literature agents

In the case of `CNC[C@H](O)[C@@H](O)[C@H](O)[C@H](O)CO.CNC[C@H](O)[C@@H](O)[C@H](O)[C@H](O)CO.O=C([O-])CN(CCN(CC(=O)[O-])CC(=O)O)CCN(CC(=O)[O-])CC(=O)O.[Gd+3]` [Magnevist@], the “relaxivity r1” value is given as 4.1 mM⁻¹ s⁻¹.
